Experimental data taken from KR20170078259A, “아이소스테비올을 포함하는 피부상태 개선용 조성물” (주식회사 엘지생활건강, priority 2015, dated 2017).
“Also recorded” adds a separate entry of the source.

Key:
[1] = target: T1, elastase derived from human leukocytes (사람의 백혈구 세포로부터 유래한 엘라스테이즈) (Homo sapiens, UniProt P08246); test: Elastase activity inhibition (MeOSuc-Ala-Ala-Pro-Val-pNA substrate); type: biochemical; settings: for elastase activity inhibition (in words): compared with quercetin; for enzyme activity: slope of absorbance at 405 nm
T1 construct: 사람의 백혈구 세포로부터 유래한 엘라스테이즈를 사용하였고; from tissue; host or cells: human leukocytes
T1 sequence (P08246 30-267): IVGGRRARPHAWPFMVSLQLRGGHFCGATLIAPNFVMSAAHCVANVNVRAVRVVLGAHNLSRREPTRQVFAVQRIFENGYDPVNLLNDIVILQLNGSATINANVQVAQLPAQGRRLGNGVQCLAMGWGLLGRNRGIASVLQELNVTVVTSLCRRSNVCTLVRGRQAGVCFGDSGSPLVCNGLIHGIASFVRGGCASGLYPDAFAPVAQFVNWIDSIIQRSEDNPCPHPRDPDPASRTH

[2] = test system: human-derived fibroblasts, type I collagen (인간 유래 섬유아세포, 제1형 콜라겐); test: Type I collagen synthesis promotion in human-derived fibroblasts (PICP EIA kit); type: cell-based
[3] = Anti-glycation (L-arginine and glucose); type: biochemical; settings: for inhibition rate: 70 °C, 4 h, 420 nm
[4] = test system: B-16 mouse melanoma cell (쥐의 멜라노마 세포); test: Total melanin increase in B-16 mouse melanoma cells (darkening effect); type: cell-based; settings: for melanin production: absorbance at 400 nm per 1×10^6 cells
[5] = 10 ppm, room temperature, 20 min, n = 3, read-out: inhibition rate

C[C@@]12CC[C@@H]3[C@@](CC[C@H]4[C@@]3(C)CCC[C@@]4(C)C(=O)O)(CC1=O)C2 [화학식 1의 화합물, (4α,8β,13β)-13-Methyl-16-oxo-17-norkauran-18-oic acid]
elastase activity inhibition (in words) ([1]; 10 ppm): 엘라스테이즈 활성 저해 효과가 양성대조군인 퀘르세틴에 상응하는 정도로 높게 나타났으며
inhibition at 10 ppm [1, 5]: 55.8%
enzyme activity ([1]; 10 ppm, room temperature, 20 min, n = 3): 4.6
elastase activity inhibition (in words) ([1]; 20 ppm): 퀘르세틴보다 우수한 엘라스테이즈 활성 저해 효과가 나타나
inhibition at 20 ppm ([1]; 20 ppm, room temperature, 20 min, n = 3, read-out: inhibition rate): 69.2%
enzyme activity ([1]; 20 ppm, room temperature, 20 min, n = 3): 3.2
collagen synthesis effect (in words) ([2]; 1 and 10 ppm, compared with vitamin C): 농도 의존적으로 콜라겐 합성량이 증가되었고; also recorded: 비타민C를 적용한 경우보다 더 낮은 농도에서 유사한 콜라겐 합성 효과를 나타내었다
type I collagen production ([2]; 1 ppm, 48 h, n = 4): 187.6 ng/mL
type I collagen production ([2]; 10 ppm, 48 h, n = 4): 265.5 ng/mL
activation at 1 ppm ([2]; Homo sapiens, Fibroblast, 1 ppm, 48 h, relative to negative control, n = 4, read-out: increase rate (type I collagen production)): 24.9%
activation at 10 ppm ([2]; Homo sapiens, Fibroblast, 10 ppm, 48 h, relative to negative control, n = 4, read-out: increase rate (type I collagen production)): 76.8%
inhibition rate ([3]; 25 ppm): 51.12%
inhibition rate ([3]; 50 ppm): 69.22%
anti-glycation effect (in words) ([3]; compared with aminoguanidine): 항당화 효과가 더욱 뛰어남
melanin production ([4]; 1 ppm, 3 days): 0.662 abs
total melanin increase effect (in words) ([4]; 10 ppm, compared with forskolin): 10 ppm에서도 상당히 우수한 멜라닌 총량 증가 효과
melanin production ([4]; 20 ppm as printed in table, 3 days): 0.831 abs
activation at 1 ppm ([4]; Mus musculus, 72 h, 1 ppm, 3 days, relative to control, read-out: increase rate (total melanin)): 101%
activation at 20 ppm ([4]; Mus musculus, 72 h, 20 ppm as printed in table, 3 days, relative to control, read-out: increase rate (total melanin)): 152%

O=C1O[C@H]([C@@H](O)CO)C(O)=C1O [비타민C, reference compound]
activation at 52.85 ppm ([2]; Homo sapiens, Fibroblast, vitamin C positive control, 52.85 ppm, 48 h, relative to negative control, n = 4, read-out: increase rate (type I collagen production)): 64.3%
type I collagen production ([2]; vitamin C positive control, 52.85 ppm, 48 h, n = 4): 246.8 ng/mL

O=c1c(O)c(-c2ccc(O)c(O)c2)oc2cc(O)cc(O)c12 [Quercetin, reference compound]
inhibition at 10 ppm [1, 5]: 69.2%

N=C(N)NN [Aminoguanidine, reference compound]
inhibition rate ([3]; aminoguanidine positive control, 55 ppm): 54.89%

C=C[C@@]1(C)CC(=O)[C@]2(O)[C@@]3(C)[C@@H](O)CCC(C)(C)[C@@H]3[C@H](O)[C@H](OC(C)=O)[C@@]2(C)O1 [Forskolin, reference compound]
melanin production ([4]; 10 ppm, 3 days): 0.792 abs
activation at 10 ppm ([4]; Mus musculus, 72 h, 10 ppm, 3 days, relative to control, read-out: increase rate (total melanin)): 140%
